Assay type in all cases: biochemical
One experiment has as its target P38 (Homo sapiens, UniProt Q16539). The experiment is described as follows: P38 kinase inhibition.
The next experiment concerns the target T1, MET (Homo sapiens, UniProt P08581).
T1 construct: Purified GST fusion protein containing the Met kinase domain, SUGEN, Inc
The experiment is described as follows: MET transphosphorylation assay. The following applies: GST fusion protein containing the Met kinase domain, poly(glu-tyr) substrate. How it is done:
MET TRANSPHOSPHORYLATION ASSAY
This assay is used to measure phosphotyrosine levels on a poly(glutamic acid:tyrosine, 4:1) substrate as a means for identifying agonists/antagonists of met transphosphorylation of the substrate.
1. Corning 96-well ELISA plates, Corning Catalog #25805-96.
2. Poly(glu-tyr), 4:1, Sigma, Cat. No; P 0275.
5. Blocking Buffer: Dissolve 25 g Bovine Serum Albumin, Sigma Cat. No A-7888, in 500 ml PBS, filter through a […] filter.
6. Purified GST fusion protein containing the Met kinase domain, SUGEN, Inc.
8. 10% aqueous (MilliQue H2O) DMSO.
9. 10 mM aqueous (dH2O) Adenosine-5′-triphosphate, Sigma Cat. No. A-5394.
10. 2×Kinase Dilution Buffer: for 100 ml, mix 10 mL 1M HEPES at pH 7.5 with 0.4 mL 5% BSA/PBS, 0.2 mL 0.1 M sodium orthovanadate and 1 mL 5M sodium chloride in 88.4 mL dH2O.
11. 4×ATP Reaction Mixture: for 10 mL, mix 0.4 mL 1 M manganese chloride and 0.02 mL 0.1 M ATP in 9.56 mL dH2O.
12. 4×Negative Controls Mixture: for 10 mL, mix 0.4 mL 1 M manganese chloride in 9.6 mL dH2O.
13. NUNC 96-well V bottom polypropylene plates, Applied Scientific Catalog #S-72092
15. Antibody Dilution Buffer: for 100 mL, mix 10 mL 5% BSA/PBS, 0.5 mL 5% Carnation® Instant Milk in PBS and 0.1 mL 0.1 M sodium orthovanadate in 88.4 mL TBST.
16. Rabbit polyclonal antophosphotyrosine antibody, SUGEN, Inc.
17. Goat anti-rabbit horseradish peroxidase conjugated antibody, Biosource, Inc.
18. ABTS Solution: for 1 L, mix 19.21 g citric acid, 35.49 g Na2HPO4 and 500 mg ABTS with sufficient dH2O to make 1 L.
19. ABTS/H2O2: mix 15 mL ABST solution with 2μL H2O2 five minutes before use.
1. Coat ELISA plates with 2 μg Poly(Glu-Tyr) in 100 μL PBS, hold overnight at 4° C.
2. Block plate with 150 μL of 5% BSA/PBS for 60 min.
3. Wash plate twice with PBS then once with 50 mM Hepes buffer pH 7.4.
4. Add 50 μl of the diluted kinase to all wells. (Purified kinase is diluted with Kinase Dilution Buffer. Final concentration should be 10 ng/well.)
5. Add 25 μL of the test compound (in 4% DMSO) or DMSO alone (4% in dH2O) for controls to plate.
6. Incubate the kinase/compound mixture for 15 minutes.
7. Add 25 μL of 40 mM MnCl2 to the negative control wells.
8. Add 25 μL ATP/MnCl2 mixture to the all other wells (except the negative controls). Incubate for 5 min.
9. Add 25 μL 500 mM EDTA to stop reaction.
10. Wash plate 3× with TBST.
11. Add 100 μL rabbit polyclonal anti-Ptyr diluted 1:10,000 in Antibody Dilution Buffer to each well. Incubate, with shaking, at room temperature for one hour.
12. Wash plate 3× with TBST.
13. Dilute Biosource HRP conjugated anti-rabbit antibody 1:6,000 in Antibody Dilution buffer. Add 100 μL per well and incubate at room temperature, with shaking, for one hour.
14. Wash plate 1× with PBS.
15. Add 100 μl of ABTS/H2O2 solution to each well.
16. If necessary, stop the development reaction with the addition of 100 μl of 0.2M HCl per well.
17. Read plate on Dynatech MR7000 ELISA reader with the test filter at 410 nM and the reference filter at 630 nM.

Another experiment has as its target FGFR1 (Homo sapiens, UniProt P11362). The experiment is described as follows: FGFR1 bioassay (ELISA, in vitro kinase activity). The conditions noted are these: purified GST-FGFR1, poly(Glu-Tyr) substrate. How it is done: This assay is used to measure the in vitro kinase activity of FGF1-R in an ELISA assay.
1. Costar 96-well ELISA plates (Corning Catalog #3369).
2. Poly(Glu-Tyr) (Sigma Catalog #P0275).
4. 50 mM Hepes Buffer Solution.
5. Blocking Buffer (5% BSA/PBS).
6. Purified GST-FGFR1 (SUGEN, Inc.)
7. Kinase Dilution Buffer. Mix 500 μl 1M Hepes (GIBCO), 20 μl 5% BSA/PBS, 10 μl 100 mM sodium orthovanadate and 50 μl 5M NaCl.
9. ATP/MnCl2 phosphorylation mix: mix 20 μL ATP, 400 μL 1M MnCl2 and 9.56 ml dH2O.
10. NUNC 96-well V bottom polypropylene plates (Applied Scientific Catalog #AS-72092).
12. 0.05% TBST Add 500 μL TWEEN to 1 liter TBS.
13. Rabbit polyclonal anti-phosphotyrosine serum (SUGEN, Inc.).
14. Goat anti-rabbit IgG peroxidase conjugate (Biosource, Catalog #ALI0404).
1. Coat Costar 96 well ELISA plates with 1 μg per well Poly(Glu-Tyr) in 100 μl PBS. Store overnight at 4° C.
2. Wash coated plates once with PBS.
3. Add 150 μL of 5%BSA/PBS Blocking Buffer to each well. Incubate, with shaking, for 1 hr at room temperature.
4. Wash plate 2× with PBS, then once with 50 mM Hepes. Pat plates on a paper towel to remove excess liquid and bubbles.
5. Add 25 μL of 0.4 mM test compound in 4% DMSO or 4% DMSO alone (controls) to plate.
6. Dilute purified GST-FGFR1 in Kinase Dilution Buffer (5 ng kinase/50 μl KDB/well).
7. Add 50 μL of diluted kinase to each well.
8. Start kinase reaction by adding 25 μl/well of freshly prepared ATP/Mn++ (0.4 ml 1M MnCl2, 40 μL 10 mM ATP, 9.56 ml dH2O), freshly prepared).
9. Stop reaction with 25 μL of 0.5M EDTA.
10. Wash plate 4× with fresh TBST.
11. Make up Antibody Dilution Buffer: For 50 ml, mix 5 ml of 5% BSA, 250 μl of 5% milk and 50 μl of 100 mM sodium vanadate, bring to final volume with 0.05% TBST.
12. Add 100 μl per well of anti-phosphotyrosine (1:10000 dilution in ADB). Incubate, with shaking for 1 hr. at room temperature.
14. Add 100 μl per well of Biosource Goat anti-rabbit IgG peroxidase conjugate (1:6000 dilution in ADB). Incubate, with shaking for 1 hr. at room temperature.
15. Wash as in step 10 and then with PBS to remove bubbles and excess TWEEN.
16. Add 100 μl of ABTS/H2O2 solution to each well.
17. Incubate, with shaking, for 10 to 20 minutes. Remove any bubbles.
18. Read assay on Dynatech MR7000 ELISA reader: test filter at 410 nM, reference filter at 630 nM.

Results on 8 compounds are retold here after patent US6677368B2, “4-aryl substituted indolinones” (Sugen, Inc., priority 2000, dated 2004).

pIC50: −log10 of the molar value.

T1 sequence (P08581 1078-1345 limits assumed): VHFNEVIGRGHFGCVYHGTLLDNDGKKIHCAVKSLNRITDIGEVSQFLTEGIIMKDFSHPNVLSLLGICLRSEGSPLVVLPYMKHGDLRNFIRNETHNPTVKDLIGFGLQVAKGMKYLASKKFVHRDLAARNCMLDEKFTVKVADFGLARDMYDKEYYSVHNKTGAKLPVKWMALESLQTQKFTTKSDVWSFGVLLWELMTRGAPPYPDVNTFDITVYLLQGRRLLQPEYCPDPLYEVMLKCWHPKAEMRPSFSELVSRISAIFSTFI
Chain of FGFR1 (P11362 22-822, species assumed): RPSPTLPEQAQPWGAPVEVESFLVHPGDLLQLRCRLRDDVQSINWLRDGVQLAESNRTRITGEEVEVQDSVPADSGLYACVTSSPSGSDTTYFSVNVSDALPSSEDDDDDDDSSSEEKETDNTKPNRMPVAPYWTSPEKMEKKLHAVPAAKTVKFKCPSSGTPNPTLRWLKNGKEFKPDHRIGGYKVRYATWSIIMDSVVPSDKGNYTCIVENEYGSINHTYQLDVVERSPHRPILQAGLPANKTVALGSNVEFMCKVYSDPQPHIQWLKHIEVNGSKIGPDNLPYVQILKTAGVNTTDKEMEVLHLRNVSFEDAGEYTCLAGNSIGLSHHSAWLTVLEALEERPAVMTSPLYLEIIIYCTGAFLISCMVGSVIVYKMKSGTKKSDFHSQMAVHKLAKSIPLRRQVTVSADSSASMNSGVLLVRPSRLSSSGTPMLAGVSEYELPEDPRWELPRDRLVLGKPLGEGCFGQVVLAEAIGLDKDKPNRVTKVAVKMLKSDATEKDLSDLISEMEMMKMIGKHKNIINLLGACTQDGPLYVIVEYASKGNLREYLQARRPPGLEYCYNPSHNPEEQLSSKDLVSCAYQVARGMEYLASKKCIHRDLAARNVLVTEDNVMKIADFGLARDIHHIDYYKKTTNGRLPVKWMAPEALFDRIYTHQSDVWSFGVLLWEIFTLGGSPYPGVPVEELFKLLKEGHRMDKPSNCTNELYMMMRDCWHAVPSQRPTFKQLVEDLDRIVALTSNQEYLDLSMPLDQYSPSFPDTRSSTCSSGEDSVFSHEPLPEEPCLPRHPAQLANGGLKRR
Chain of P38 (Q16539 whole entry): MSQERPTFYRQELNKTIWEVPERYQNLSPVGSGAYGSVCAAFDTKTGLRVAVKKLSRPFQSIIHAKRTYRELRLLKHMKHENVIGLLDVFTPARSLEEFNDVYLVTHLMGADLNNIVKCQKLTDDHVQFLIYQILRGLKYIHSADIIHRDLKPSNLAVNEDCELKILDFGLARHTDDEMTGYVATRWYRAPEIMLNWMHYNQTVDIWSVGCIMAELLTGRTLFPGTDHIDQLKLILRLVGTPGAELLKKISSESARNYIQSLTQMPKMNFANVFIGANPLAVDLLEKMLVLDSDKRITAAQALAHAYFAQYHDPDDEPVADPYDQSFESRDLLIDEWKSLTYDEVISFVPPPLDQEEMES

For orientation: pIC50 means the IC50 on a negative log10 scale, so that one unit is a factor of ten. A higher pIC50 goes with a low IC50. Consider `CCN(CC)CCNC(=O)c1c(C)[nH]c(/C=C2\C(=O)Nc3cccc(-c4cccc(OC)c4)c32)c1C` [Example 46, 5-[4-(3-Methoxy-phenyl)-2-oxo-1,2-dihydro-indol-3-ylidenemethyl]-2,4-dimethyl-1H-pyrrole-3-carboxylic Acid (2-Diethylamino-ethyl)-amide], for which the negative-log IC50 (pIC50) on P38 was below 5.00; against MET it was 6.92; at FGFR1, 7.66.
Taken in the same sequence, the figures for `COc1cccc(-c2cccc3c2/C(=C/c2[nH]c(C)c(C(=O)NCCn4ccnn4)c2C)C(=O)N3)c1` [Example 48, 5-[4-(3-Methoxy-phenyl)-2-oxo-1,2-dihydro-indol-3-ylidenemethyl]-2,4-dimethyl-1H-pyrrole-3-carboxylic Acid (2-[1,2,3]Triazol-1-yl-ethyl)-amide] were below 5.00, 5.97 and 6.22.
Taken in the same sequence, the figures for `COc1cccc(-c2cccc3c2/C(=C/c2[nH]c(C)c(C(=O)NCCN(C(C)C)C(C)C)c2C)C(=O)N3)c1` [Example 52, 5-[4-(3-Methoxy-phenyl)-2-oxo-1,2-dihydro-indol-3-ylidenemethyl]-2,4-dimethyl-1H-pyrrole-3-carboxylic Acid (2-Diisopropylamino-ethyl)-amide] were below 5.00, 7.04 and 7.46.
The like results for `Cc1[nH]c(/C=C2\C(=O)Nc3cccc(-c4ccc(Br)cc4)c32)c(C)c1C(=O)N1CCN(C)CC1` [Example 53] were, in that order, below 5.00, 6.54 and 5.94.
As to `Cc1[nH]c(/C=C2\C(=O)Nc3cccc(-c4ccc(Br)cc4)c32)c(C)c1C(=O)N1C[C@@H](C)N[C@@H](C)C1` [Example 57, 4-(4-Bromo-phenyl)-3-[4-[(cis)-3,5-dimethyl-piperazine-1-carbonyl)-3,5-dimethyl-1H-pyrrol-2-ylmethylene]-1,3-dihydro-indol-2-one], the pIC50 on P38 is below 5.00; at MET it was 6.38; at FGFR1, 6.59.
The like results for `Cc1cc(C(=O)NCCN2CCCC2)c(/C=C2\C(=O)Nc3cccc(-c4ccc(Br)cc4)c32)[nH]1` [Example 58, 2-[4-(4-Bromo-phenyl)-2-oxo-1,2-dihydro-indol-3-ylidenemethyl]-5-methyl-1H-pyrrole-3-carboxylic Acid (2-Pyrrolidin-1-yl-ethyl)-amide] were, in that order, below 5.00, 7.14 and 6.60.
The like results for `Cc1[nH]c(/C=C2\C(=O)Nc3cccc(-c4ccc(Br)cc4)c32)c(C)c1C(=O)NCCN(C(C)C)C(C)C` [Example 60, 5-[4-(4-Bromo-phenyl)-2-oxo-1,2-dihydro-indol-3-ylidenemethyl]-2,4-dimethyl-1H-pyrrole-3-carboxylic Acid (2-Diisopropylamino-ethyl)-amide] were, in that order, 5.10, 6.60 and 6.82.
The like results for `CCN(CC)CCNC(=O)c1c[nH]c(/C=C2\C(=O)Nc3cccc(-c4ccc(Br)cc4)c32)c1C` [Example 61, 5-[4-(4-Bromo-phenyl)-2-oxo-1,2-dihydro-indol-3-ylidenemethyl]-4-methyl-1H-pyrrole-3-carboxylic Acid (2-Diethylamino-ethyl)-amide] were, in that order, 5.20, 6.96 and 7.68.
